This is an account of results in US9949465B2, “Atopic dermatitis model animal and use thereof” (HYOGO COLLEGE OF MEDICINE, priority 2013, dated 2018).

The test system of assay [1] is hK14mIL33tg mice. The experiment in a line: Scratching behavior (skin scratching time) in hK14mIL33tg mice. It is filed as in vivo, mouse. On the procedure:
Skin scratching time (sec/min) in any 20 min of wild-type mice (WT) and hK14mIL33tg mice (Tg) was measured. […] Furthermore, an effect of anti-histamine drugs on the scratching behavior was verified. Diphenhydramine hydrochloride (2 mg) was intraperitoneally administered to hK14mIL33tg mice. As a result, the scratching time of mice observed in 20 min from 6 min after the administration decreased from average 4.6 min to average 0.2 min (FIG. 19).

The subject of assay [2] is hK14mIL33tg mice. The experiment in a line: Rash score of hK14mIL33tg mice after application to rash site. It counts as in vivo, mouse. As for the experimental part: Each item can be measured by a known method, or according to the below-mentioned Examples. For example, as for the rash score, 5 items of pruritus, erythematous plaque/bleeding, edema, epidermis detachment/erosion, and desquamation/drying are evaluated and rated as absent (0 point), mild (1 point), moderate (2 points), and severe (3 points), and the total points are used for measurement (Matsuda H et al., Int. Immunol, 9(3):461-466, 1997). As for the number of inflammatory cells, for example, cells derived from skin tissue, peripheral blood or lymph node are analyzed by flow cytometry, and the ratio thereof can be measured. The inflammatory cells include eosinophils, neutrophils, basophils, mast cells, type 2 innate lymphoid cells and the like, preferably eosinophils, mast cells and type 2 innate lymphoid cells. The total IgE concentration, histamine concentration, cytokine concentration and chemokine concentration can be measured by ELISA using each antibody. As used herein, cytokine is preferably IL-5 or IL-13. […]
An effect of steroid drug on scratching behavior of hK14mIL33tg mice was verified. […] As rash scores, 5 items of pruritus, erythematous plaque/bleeding, edema, epidermis detach/erosion, and desquamation/drying were evaluated into absent (0 point), mild (1 point), moderate (2 points), and severe (3 points) (Matsuda H et al., Int. Immunol, 9(3):461-466, 1997). […]

Structures can show the parent of a compound that is named as a salt.

Take `CN(C)CCOC(c1ccccc1)c1ccccc1` [Diphenhydramine hydrochloride]: the “scratching time after administration” value in the assay with hK14mIL33tg mice [1] (2 mg intraperitoneally, observed in 20 min from 6 min after the administration, average, n=3, before administration average 4.6 min) is 0.2 min. For the same compound, the “scratching time (result in words)” value in the assay on hK14mIL33tg mice [1] (hK14mIL33tg (Tg) mice, increased scratching time vs wild-type) is “could reduce”.

Take `CCCC(=O)O[C@]1(C(=O)COC(=O)CC)[C@@H](C)C[C@H]2[C@@H]3CCC4=CC(=O)C=C[C@]4(C)[C@@]3(F)[C@@H](O)C[C@@]21C` [betamethasone butyrate propionate]: in the assay with hK14mIL33tg mice [2] (applied to rash site 5 times every 2 days, average, n=4, before application average 12.3 points, 5 items scored 0-3), the “total points of rash score after application” value is on record as 4.8 points. The “rash score (result in words)” value in the assay with hK14mIL33tg mice [2] (hK14mIL33tg (Tg) mice) is on record as “could reduce”.
